Measured values from patent US20170307590A1, “INHIBITORS OF MALARIAL AND HUMAN GLUCOSE TRANSPORTERS AND METHODS FOR IDENTIFYING THE INHIBITORS” (Washington University in St. Louis, priority 2016, published 2017).
Where two headings read alike, the source gives them in different places.

Columns and labels:
PfHT [1] = target: T1, PfHT (Plasmodium falciparum, UniProt O97467); test: Heterologous FRET glucose sensor screening assay in PfHT-FLIP HEK293 cells; assay type: cell-based; conditions: for inhibition at 10 µM: HEK293, FRET ratio, vehicle 100%, 200 μM CB 0%
T1 construct: endogenous in cells; host or cells: P. falciparum 3D7 parasites freed from human erythrocytes
T1 sequence (O97467 1-504): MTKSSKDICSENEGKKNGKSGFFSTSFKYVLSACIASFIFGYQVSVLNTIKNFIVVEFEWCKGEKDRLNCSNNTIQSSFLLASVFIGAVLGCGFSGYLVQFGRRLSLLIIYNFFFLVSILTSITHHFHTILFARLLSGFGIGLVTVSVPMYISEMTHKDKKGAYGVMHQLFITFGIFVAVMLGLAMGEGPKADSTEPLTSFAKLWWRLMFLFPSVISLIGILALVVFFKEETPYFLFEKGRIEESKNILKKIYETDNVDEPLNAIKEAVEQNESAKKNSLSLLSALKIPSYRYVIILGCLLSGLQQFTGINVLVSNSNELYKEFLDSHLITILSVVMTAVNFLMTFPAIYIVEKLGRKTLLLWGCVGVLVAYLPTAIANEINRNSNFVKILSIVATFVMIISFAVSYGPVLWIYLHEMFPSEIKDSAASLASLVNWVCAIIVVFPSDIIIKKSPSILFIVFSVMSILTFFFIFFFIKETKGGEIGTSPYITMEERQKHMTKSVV
Description: HEK293 cells were transfected with pcDNA3.1 FLII12Pglu-700uDelta6 (Addgene, Cambridge, Mass.), containing the FRET glucose sensor (HEK293-FLIP) using Optifect Reagent (Life Technologies, Waltham, Mass.) according to manufacturer's specifications. Cells that stably integrated the gene were selected using G418 (Sigma Aldrich, St. Louis, Mo.) and highest expressers were identified using Fluorescence Activated Cell Sorting (FACS). These cells were then stably transfected with PfHT, human GLUT1 (hGLUT1), human GLUT2 (hGLUT2), human GLUT3 (hGLUT3) or human GLUT4 (hGLUT4) DNA in the pcDNA 3.1(−) hygro plasmid (Life Technologies). Single clones were selected by comparing their ability to transport radiolabeled glucose. In all cell lines except for HEK293 overexpressing hGLUT1 cells, native hGLUT1 was knocked down using shRNA.
96-well plates were pretreated with 25 μg/ml Polyethylenimine (PEI, 750 kDa, Sigma Aldrich) solution containing 150 mM NaCl to maintain cell adhesion during washing steps. After 20 min incubation at room temperature (RT), PEI was aspirated and wells were air dried for 5 min. PfHT-FLIP cells were plated 48 h prior to the assay in black opaque 96-well plates (Greiner Bio-One, Monroe, N.C.), which were previously treated with PEI, at 30,000 cells/well. After cell plating, plates were then left in the sterile hood at RT for 45 min before transfer to the incubator to reduce edge effects. Compound screening was performed using the integrated and automated screening system (Beckman Coulter, Brea, Calif.) at the Washington University High Throughput Screening Core. SAMI EX software (Beckman Coulter) was used to design and execute the screening protocol. The Malaria Box (Medicines for Malaria Venture, Geneva, Switzerland) compound library was prediluted in glucose-free HEPES buffered saline solution (HBSS) (146 mM NaCl, 4.7 mM KCl, 0.6 mM MgSO4, 1.6 mM NaHCO3, 0.13 mM NaH2PO4, 2.5 mM CaCl2, 20 mM HEPES, pH 7.3) using the BiomekFX liquid handler (Beckman Coulter). A 1:100 dilution of 1 mM stock solution was prepared for 10 μM final concentration.
To initiate the screening assay, cells were washed twice with 150 μl HBSS per well using the ELx405 Plate Washer (Biotek, Winooski, Vt.). Cells were starved in HBSS for 30 min at RT, followed by aspiration of the HBSS from cell plates using the ELx405 Plate Washer. Cells were treated with 45 μl of diluted compound using the BiomekFX (with 3 replicate cell plates for each library plate) and incubated for 6 min at RT. To initiate the uptake, 5 μl of 100 mM glucose was added to the wells (final concentration 10 mM) using a Multidrop384 dispenser (Thermo Fisher Scientific, Waltham, Mass.). After incubation at RT for 120 min, fluorescence was measured using the 2102 EnVision Multilabel Plate Reader (Perkin Elmer, Waltham, Mass.) at excitation 436 nm (CFP) and emissions 485 nm (CFP) and 535 nm (YFP).
The Malaria Box was screened at 10 μM drug concentrations in triplicate and selected hits that decreased the FRET ratio by more than 30% with vehicle-treated cells set to 100% and cells treated with 200 μM CB set to 0%. Since fluorescent compounds have the potential to generate false positive hits, the FRET ratio of compounds without cells present was determined. After false positive elimination, 5 compounds were identified as primary hits. Hit confirmation was ascertained by determining the IC50 for glucose uptake into isolated P. falciparum parasites from blood culture using radiolabeled D-glucose. […] Compound MMV020548 was included for comparison as it was previously identified from the same library. The similar IC50 observed in the freed parasite glucose uptake assay and in vitro growth inhibition assay for MMV009085, was consistent with the interpretation that this compound is acting through PfHT blockage to inhibit parasite growth (Table 3) although, alternative targets in the parasite might be inhibited as well.

P. falciparum = conditions: values provided with the malaria box; read-out: EC50 for P. falciparum growth inhibition Malaria box; cited from earlier work
PfHT [2] = target: T1, PfHT; test: Uptake of [14C]-2-DOG into isolated (freed) P. falciparum parasites; assay type: cell-based
Experimental: P. falciparum strain 3D7 was cultured in 100 mm tissue culture dishes (Techno Plastic Products, Trasadingen Switzerland) in a 2% suspension of human erythrocytes and RPMI 1640 medium until reaching >5% parasitemia. Cells were pelleted via centrifugation and resuspended in RPMI. To determine the uptake of radiolabeled glucose into the parasite, it was isolated from the erythrocyte while removing uninfected erythrocytes. Uptake of [^14C]-2-DOG into isolated parasites was determined at RT using the methods described previously(19). Test compounds were added 5 min prior to the addition of [^14C]-2-DOG (0.2 μCi/ml final concentration). Uptake was quenched after 2 min Data were fit by nonlinear regression analysis using GraphPad Prism software. Uptake of [^3H]-2-DOG into HEK293-FLIP cell lines was measured in HEPES-buffered saline at RT for 4 min Data were fit by nonlinear regression analysis using GraphPad Prism software.

P. falciparum strain 3D7 = test: P. falciparum growth inhibition assay (PicoGreen DNA content); assay type: cell-based; conditions: Plasmodium falciparum; for EC50: intraerythrocytic forms, strain 3D7
Experimental: P. falciparum strain 3D7 was obtained from the Malaria Research and Reference Reagent Resource Center (MR4). P. falciparum parasites were cultured in a 2% suspension of human erythrocytes and RPMI 1640 (Sigma Aldrich) medium supplemented with 27 mM sodium bicarbonate, 11 mM glucose, 5 mM HEPES, 1 mM sodium pyruvate, 0.37 mM hypoxanthine, 0.01 mM thymidine, 10 μg/ml gentamicin, and 0.5% Albumax (Gibco, Waltham, Mass.) at 37° C., 5% O2/5% CO2/90% N2 atmosphere.
Asynchronous P. falciparum cultures were diluted to 1% parasitemia and were treated with compounds at concentrations ranging from 9.8 nM-20 μM. Growth inhibition assays were performed in 100 μl cultures in opaque 96-well plates. Parasite growth was quantified after 3 days by measuring DNA content using PicoGreen (Life Technologies). Fluorescence was measured by a FLUOstar Omega microplate reader (BMG Labtech, Cary, N.C.) at 485 nm excitation and 528 nm emission. IC50 values were calculated by nonlinear regression analysis using GraphPad Prism software.

PfHT [3] = target: T1, PfHT; test: Glucose uptake into PfHT overexpressing L. mexicana parasites (Ortiz et al.); assay type: cell-based
PfHT [4] = target: T1, PfHT; conditions: cited from earlier work
hGLUTs 1-4 = test: Uptake of [3H]-2-DOG by HEK293 cells overexpressing PfHT or hGLUTs 1-4; assay type: cell-based, human
Experimental: To establish selectivity of these hits for PfHT over human orthologues, the inhibition of GLUTs 1, 2, 3 and 4 was cross-validated by the confirmed hits. […] The inhibitory effect of the five confirmed hits was determined on all four human class I GLUTs at the IC50 concentration for PfHT-mediated glucose uptake inhibition.

parasites = conditions: cited from earlier work
[5] = system: human insulin-responsive glucose transporter GLUT4; conditions: cited from earlier work
[6] = IC50 PfHT in parasites, Table 1
[7] = IC50 for glucose uptake in freed parasites, from dose-response curves of FIG. 4
[8] = 72 h, P. falciparum strain 3D7, growth after 3 days, read-out: IC50 3D7 in vitro
[9] = PfHT overexpressing L. mexicana, read-out: IC50 PfHT (determined by Ortiz et al. (15) in L. mexicana)

Row | Structure (SMILES) | inhibition at 10 µM (PfHT [1]) [%] | EC50 (P. falciparum) [nM] | IC50 (PfHT [2]; [6]) [nM] | IC50 (PfHT [2]; [7]) [nM] | IC50 (P. falciparum strain 3D7; [8]) [nM] | EC50 (P. falciparum strain 3D7) [nM] | glucose uptake versus proline transport in PfHT-overexpressing Leishmania mexicana (PfHT [4]) | further results
1 | C=C1[C@@H](C)[C@H]2[C@H](Cc3ccccc3)NC(=O)[C@]23OC(=O)/C=C/[C@H](O)CCC[C@@H](C)C/C=C/[C@H]3[C@@H]1O [CB, cytochalasin B, reference compound] | – | – | – | – | – | – | – | maximal decrease in FRET ratio (PfHT [1]; 50 μM, PfHT-FLIP cells): 75%; inhibition of D-glucose uptake (PfHT [1]; 200 μM, PfHT-FLIP cells): complete inhibition
2 | Cc1ccc2nc(C)cc(Nc3cccc(C(F)(F)F)c3)c2c1 [MMV000326] | 49 | 1170 | 139000 | 286000 | 344 | 344 | – | –
3 | O=C1c2ccc3c4c(ccc(c24)C(=O)N1CCCCO)C(=O)N(CCCCO)C3=O [MMV009085] | 87 | 795 | 1800 | – | 987 | 987 | selectively inhibit glucose uptake, but not proline transport | IC50 (PfHT [2]; IC50 for PfHT-mediated glucose uptake): 2600 nM; difference in potency by the two assays (parasite growth vs L. mexicana PfHT overexpression) (PfHT [3]): 20 fold; IC50 (PfHT [4]; read-out: IC50 L. mexicana PfHT overexpression assay): 51 nM; selectivity for PfHT over human orthologues (IC50s for glucose uptake inhibition) (hGLUTs 1-4): more than 10 fold; IC50 (P. falciparum strain 3D7; 3D7, read-out: IC50 malaria parasite growth assay): 990 nM
4 | CCN1CCN(Cc2ccc(NC(=O)c3cc4ccc5cccnc5c4[nH]3)cc2)CC1 [MMV020548] | 21 | 361 | 21300 | 15500 | 114 | 114 | selectively inhibit glucose uptake, but not proline transport | IC50 (PfHT [4]; [9]): 3500 nM
5 | CC(C)(C)C(=O)Nc1ccc(C(=O)Nc2cccc(-c3nc4ccccc4[nH]3)c2)cc1 [MMV665879] | 49 | – | 6600 | 8300 | 390 | 390 | selectively inhibit glucose uptake, but not proline transport | IC50 (PfHT [4]; [9]): 2700 nM
6 | COc1cc(C(=O)Nc2ccc(-c3nc4ccccc4[nH]3)cc2)cc(OC)c1OC [MMV665898] | 64 | 1220 | 6200 | 5300 | 487 | 487 | – | –
7 | CN(C)c1ccc(C(O)(c2ccc(N(C)C)cc2)c2ccc(N(C)C)cc2)cc1 [MMV665941] | 31 | 255 | 13300 | 19600 | 26 | 26 | – | inhibition of glucose uptake at the highest concentration tested (PfHT [2]; FIG. 4): only partial inhibition
8 | Cc1cccc(C)c1OCC(=O)N[C@@H](Cc1ccccc1)[C@@H](O)C[C@H](Cc1ccccc1)NC(=O)[C@H](C(C)C)N1CCCNC1=O [lopinavir] | – | – | – | – | – | – | – | FRET ratio with addition of D-glucose (PfHT [1]; PfHT-FLIP cells, FIG. 2a): decreased FRET ratio; IC50 (parasites): 16000 nM; selectivity GLUT4 over PfHT [5]: higher selectivity for the human insulin-responsive glucose transporter GLUT4 over PfHT
